Assay results published in patent publication US20050220912A1, “Anti-inflammatory composition for treating pelvic endometriosis” (priority 2004, published 2005).

Experiments:
[1] = Chondroitin sulfate solubility in oils; type: physicochemical; conditions: in codfish oil, corn oil and olive oil (from the flesh of the olive)
Text: Parallel experiments with codfish oil, corn oil and olive oil (from the flesh of the olive) were comtemplated, but chondroitin sulfate solubility in these oils was insufficient to meet the requirements of the experiment.

[2] = Effect of olive kernel extract on absorption of tritiated chondroitin sulfate in vivo (serum radioactivity after oral capsule); design: species or system male Sprague-Dawley rats; conditions: serum radioactivity at 8 hours
Protocol: Chondroitin sulfate was tritiated by New England Nuclear Corp. to a specific activity of 4.3 mCi/ml.
Unlabeled chondroitin sulfate was dissolved in olive kernel extract at a ratio of about 55 w/v chondroitin sulfate powder to about 450 w/v of olive kernel extract (2.9% acidity as oleic acid, 1.03% water, 0.08% hexane). To this solution was added 20.2 microcuries of the labeled chondroitin sulfate. AAA gelatin capsules were filled with the resulting solution using an aluminum template molding device.
The laboratory animals (250 g male Sprague-Dawley rats) were kept overnight without food but with free access to water. One capsule containg the above-described chondroitin sulfate-olive kernel extract solution was given to each rat per os. Control animals were given the equivalent amount of chondroitin, but without olive kernel extract. The animals were then given free access to food. Serum radioactivity was measured 8 hours thereafter in a beta scintillation counter.

[3] = commercially available chondroitin sulfate preparations (cow trachea); cited from earlier work

chondroitin sulfate
chondroitin sulfate solubility [1]: insufficient | dose of labeled chondroitin sulfate that reached the circulation ([2]; control animals, per os capsule without olive kernel extract, n=3): about 3.9%+/−0.4% | dose of labeled chondroitin sulfate absorbed into the general circulation ([2]; per os capsule, chondroitin sulfate dissolved in olive kernel extract, n=4): about 14.3%+/−0.7% | Absorption from g.i. tract / absorbed orally [3]: less than 5%
